Reference: PMC10154249, “Unique progerin C-terminal peptide ameliorates Hutchinson–Gilford progeria syndrome phenotype by rescuing BUBR1” (Nature Aging, 2023)
Values joined by “and” are separate entries in the source; they are usually repeats but may differ in a detail not shown here. Identical values can stand only once.

What was measured:
[1] = system: HGADFN003 cells; test: SA-β-gal staining of HGADFN003 cells; format: cell-based, human; conditions: for Relative percentage of SA-β-gal positive cells: Fig. 5a, Mock 32, 39, 31, P=0.0059; for SA-β-gal positive cells: HGADFN003, Extended Data Fig. 10c
Method: SA-β-gal staining was performed as previously described. Cells were fixed in 0.5% glutaraldehyde for 15 min at room temperature, washed three times with PBS (pH 6.0) containing 1 mM MgCl2 and exposed overnight 37 °C to containing 1 mg ml^–1 5-bromo-4-chloro-3-indolyl-β-D-galactopyranoside (MCE, catalog no. HY-15934), 0.12 mM potassium ferrocyanide (Sigma, catalog no. P3289), 0.12 mM potassium ferricyanide (Sigma, catalog no. P8131) and 1 mM MgCl2 PBS buffer (pH 6.0). Cells were washed three times with H2O and observed under a microscope (OLYMPUS CKX53). SA-β-gal positive cells were quantified by investigators who were blinded to the identity of the analyzed cell.

[2] = system: IMR90 cells; test: Cell survival rate analysis in IMR90 cells; format: cell-based, human; conditions: Fig. 5o, 48h
Method: Cell viability was assessed using the Cell Counting Kit-8 (CCK8) (APE, catalog no. k1018). The cells were plated in triplicate in 96-well plates (typically 10,000 cells per 100 μl per well) and were incubated with fresh medium for 24 h. Then, the cells were incubated with different concentrations (0 μM, 10 μM, 20 μM, 30 μM) of UPCP for 0 h, 24 h, 48 h or 72 h. CCK8 solution (10 μl) was added to the well for a 2 h incubation at 37 °C. Absorbance was measured at 450 nm with a 96-well plate reader (Tecan Infinite M NANO^+). Data were analyzed and further processed in i-control v.2.0 and GraphPad Prism v.7.

[3] = system: Lmna^G609G/G609G mice; test: Open field test; format: in vivo, mouse; conditions: for Distance: LmnaG609G/G609G-UPCP, one line per mouse
Method: For UPCP injection, 14-day-old Lmna^G609G/G609G mice were injected intraperitoneally with either PBS or UPCP (20 mg kg^–1, every other day) and wild-type mice were injected with PBS. All phenotypic analyses were performed after 12 weeks of treatment with UPCP. Bodyweight and lifespan were monitored after UPCP treatment. The survival rate was analyzed by the Kaplan–Meier method. We only included mice that were of sufficient bodyweight at the start of the experiment, typically at least 80% of the average littermate weight of the same sex and genotype. All animals meeting criteria for inclusion were then divided randomly into three groups according to genotype (Lmna^+/+, Lmna^G609G/G609G-Mock and Lmna^G609G/G609G-UPCP).
The mice were acclimated to the testing room for 2 h before the test. Before each individual trial, the testing apparatus was cleaned with 75% ethanol. Mice were placed individually in a random corner of the box (40 × 40 × 35 cm) facing the wall. Their movements, indicating locomotor activity, were recorded with a video camera for 20 min and were analyzed with Ethovision XT 10 (Noldus).

[4] = system: progerin–BUBR1 interaction; test: CoIP of progerin and BUBR1 in HEK-293T cells; format: cell-based; conditions: HEK-293T, Flag-progerin, UPCP 6 μM, 12 μM and 18 μM
Method: Detailed descriptions of CoIP were described previously[55],[56]. Cells were harvested and washed three times in cold PBS, then lysed in CoIP buffer (25 mM Tris-HCl (pH 7.5), 150 mM KCl, 5 mM EDTA, and 0.5% NP-40) plus protease inhibitor cocktail tablet (Roche). Incubate on ice and shock lysates on the vortex shaker 15 times for 30 s each. Microcentrifuge in 12,000g for 15 min at 4 °C, collect the supernatant, and incubate with 3 μg primary antibodies with gentle shaking overnight at 4 °C, followed by adding 20–40 μl Pure Proteome Protein A/G Mix Magnetic Beads (Millipore, catalog no. […]02) for 3 h. Wash the beads three times with 1 ml CoIP buffer for 8 min each, resuspend in 50 μl 1× loading buffer, and incubate at 100 °C for 8 min. Throw beads away and analyze by immunoblotting.

[5] = biological target: T1, BUBR1 (Homo sapiens, UniProt O60566); test: Microscale thermophoresis (MST) of UPCP and BUBR1; format: binding; conditions: Fig. 3d
T1 construct: made in house
T1 sequence (O60566 whole entry): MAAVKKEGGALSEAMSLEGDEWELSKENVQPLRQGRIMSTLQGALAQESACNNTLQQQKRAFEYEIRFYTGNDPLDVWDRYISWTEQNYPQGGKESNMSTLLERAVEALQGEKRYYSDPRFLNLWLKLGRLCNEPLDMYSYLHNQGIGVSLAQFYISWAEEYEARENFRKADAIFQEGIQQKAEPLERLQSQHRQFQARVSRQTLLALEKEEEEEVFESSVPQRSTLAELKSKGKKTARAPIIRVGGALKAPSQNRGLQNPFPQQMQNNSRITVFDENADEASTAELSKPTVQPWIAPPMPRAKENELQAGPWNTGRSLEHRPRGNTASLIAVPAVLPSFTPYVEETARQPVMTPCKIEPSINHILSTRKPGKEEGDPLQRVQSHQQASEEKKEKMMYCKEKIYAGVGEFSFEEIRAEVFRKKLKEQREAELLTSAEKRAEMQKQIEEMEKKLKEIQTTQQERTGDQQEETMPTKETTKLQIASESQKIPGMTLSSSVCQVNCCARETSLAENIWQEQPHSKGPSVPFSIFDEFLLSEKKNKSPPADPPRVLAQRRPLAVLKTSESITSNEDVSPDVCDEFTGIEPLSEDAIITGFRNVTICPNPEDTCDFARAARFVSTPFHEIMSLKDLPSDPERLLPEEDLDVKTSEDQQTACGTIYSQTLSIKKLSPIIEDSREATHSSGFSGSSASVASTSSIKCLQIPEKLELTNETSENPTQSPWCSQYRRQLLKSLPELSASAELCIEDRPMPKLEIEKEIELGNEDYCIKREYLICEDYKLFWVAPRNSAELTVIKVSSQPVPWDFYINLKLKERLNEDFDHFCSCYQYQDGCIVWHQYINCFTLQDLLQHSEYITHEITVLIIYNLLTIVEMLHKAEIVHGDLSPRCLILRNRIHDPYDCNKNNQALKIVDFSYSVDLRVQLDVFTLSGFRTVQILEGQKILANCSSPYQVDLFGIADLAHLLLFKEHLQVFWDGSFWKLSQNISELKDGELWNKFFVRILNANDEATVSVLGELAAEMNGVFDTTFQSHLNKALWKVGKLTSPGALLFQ
Method: Cells were harvested and lysed in buffer A mixed with protease inhibitor cocktail tablet (Roche) after 48 h. […] The beads were washed three times using 1× Tris saline buffer (50 mM Tris-HCl (pH 7.4) and 150 mM NaCl)) for 8 min each. The bound proteins BUBR1 or PTBP1 were eluted with 3×Flag peptide (ApexBio) for 2 h at 4 °C. Finally, BUBR1 or PTBP1 was concentrated and recovered by using the Centrifugal Filters (Amicon Ultra).
His-UPCP was eluted with Imidazole eluent for 2 h at 4 °C and concentrated and recovered by using centrifugal filters (Amicon Ultra). Flag-BUBR1 or PTBP1 was purified as described in Affinity purification of Flag-tagged protein. The purified protein was diluted with 0.05% Tween-20 in PBS in to an appropriate concentration (His-UPCP: 50 nM, Flag-BUBR1: 25 μM, Flag-PTBP1: 45 μM). Then, His-UPCP was labeled with RED-Tris-NAT according to the manufacturer’s instructions (NanoTemper, MO-L018). Flag-BUBR1 or Flag-PTBP1 was diluted by 16 concentration gradients in turn and mixed with labeled protein (His-UPCP). The capillaries (MST NT115 premium) were loaded and the samples measured on the instrument (NanoTemper Monolith NT.115). Data were analyzed by MO.AffinityAnalysis and curves were drawn using Origin 2019.

“H-YGRKKRRQRRRYNLRSRTVLCGTCGQPADKASASGSGAQSPQNCSIM-OH (cysteines drawn unpaired) [UPCP, unique progerin C-terminal peptide]” was tested, and the “Relative percentage of SA-β-gal positive cells” value (“Relative percentage” below) ([1]; HGADFN003, replicate 1) was 15%, the “Relative percentage” value ([1]; HGADFN003, replicate 2) was 10% and the “Relative percentage” value ([1]; HGADFN003, replicate 3) was 19%. For the same substance, the “SA-β-gal activity (FTI-277/UPCP comparison, words)” value ([1]; HGADFN003) was “decreased the activity of SA-β-gal”, the SA-β-gal positive cells ([1]; replicate 1) was 12% and the SA-β-gal positive cells ([1]; replicate 2) was 18%. The SA-β-gal positive cells ([1]; replicate 3) was 25%, the “SA-β-gal activity” value ([1]; HGPS cells) was “reduced activity of SA-β-gal” and the “efficacy on HGPS cellular senescence relative to FTI-277” value ([1]; HGPS cells) was “comparable with farnesyltransferase inhibitors (FTI-277)”. For the same substance, the “Cell survival rate analysis (UPCP-OD/Mock-OD)” value (“Cell survival rate analysis” for short) ([2]; 10μM, UPCP-0μM = 1, P=0.1549, replicate 1) was 0.9983, the “Cell survival rate analysis” value ([2]; 10μM, UPCP-0μM = 1, P=0.1549, replicate 2) was 1.052 and the “Cell survival rate analysis” value ([2]; 10μM, UPCP-0μM = 1, P=0.1549, replicate 3) was 1.032. The “Cell survival rate analysis” value ([2]; 20μM, UPCP-0μM = 1, P=0.2306, replicate 1) was 1.032, the “Cell survival rate analysis” value ([2]; 20μM, UPCP-0μM = 1, P=0.2306, replicate 2) was 1.043 and the “Cell survival rate analysis” value ([2]; 20μM, UPCP-0μM = 1, P=0.2306, replicate 3) was 1.31. The “Cell survival rate analysis” value ([2]; 30μM, UPCP-0μM = 1, P=0.4981, replicate 1) was 0.9716, the “Cell survival rate analysis” value ([2]; 30μM, UPCP-0μM = 1, P=0.4981, replicate 2) was 1.072 and the “Cell survival rate analysis” value ([2]; 30μM, UPCP-0μM = 1, P=0.4981, replicate 3) was 1.021. For the same substance, the mobility ([3]; 20 mg kg^–1 i.p. every other day, open field, 20 min) was “enhanced the mobility”, the Distance ([3]; female mice, Fig. 6g) was 3465.62 cm and 4842.39 cm and 4480.91 cm and 4399.08 cm and 3236.68 cm and 4440.93 cm and the Distance ([3]; male mice, Fig. 6h) was 5127.23 cm and 4324.53 cm and 5298.93 cm and 5261.99 cm and 4436.52 cm and 3525.05 cm. For the same substance, the “interaction between progerin and BUBR1” value [4] was “interfered with the interaction between progerin and BUBR1”, the “Dose Response Curve, Response” value ([5]; Dose 3.125e-6, Err-Value 0.164542) was 928.56 and the “Dose Response Curve, Response” value ([5]; Dose 6.25e-6, Err-Value 0.285623) was 930.678. For the same substance, the “Dose Response Curve, Response” value ([5]; Dose 1.25e-5, Err-Value 0.150599) was 932.492, the “Dose Response Curve, Response” value ([5]; Dose 1.22E-08, Err-Value 0.206069) was 919.933 and the “Dose Response Curve, Response” value ([5]; Dose 1.53E-09, Err-Value 0.561265) was 919.392. For the same substance, the “Dose Response Curve, Response” value ([5]; Dose 1.56E-06, Err-Value 0.465775) was 925.424, the “Dose Response Curve, Response” value ([5]; Dose 1.95E-07, Err-Value 0.135144) was 920.487 and the “Dose Response Curve, Response” value ([5]; Dose 2.44E-08, Err-Value 0.0972446) was 919.498. For the same substance, the “Dose Response Curve, Response” value ([5]; Dose 3.05E-09, Err-Value 0.226695) was 919.513, the “Dose Response Curve, Response” value ([5]; Dose 3.81E-10, Err-Value 0.379307) was 919.141 and the “Dose Response Curve, Response” value ([5]; Dose 3.91E-07, Err-Value 0.144905) was 921.751. The “Dose Response Curve, Response” value ([5]; Dose 4.88E-08, Err-Value 0.856541) was 920.216, the “Dose Response Curve, Response” value ([5]; Dose 6.10E-09, Err-Value 0.130907) was 919.306 and the “Dose Response Curve, Response” value ([5]; Dose 7.63E-10, Err-Value 0.475828) was 919.4. For the same substance, the “Dose Response Curve, Response” value ([5]; Dose 7.81E-07, Err-Value 0.529145) was 922.85 and the “Dose Response Curve, Response” value ([5]; Dose 9.77E-08, Err-Value 0.363098) was 919.824.
